Target: T1, Cloned Human Dopamine D3 Receptors (Homo sapiens, UniProt P35462)
T1 construct: expressed in transfected cells; membrane homogenate
Test: [N-Methyl-3H]Spiroperidol binding to cloned human dopamine D3 receptors
Conditions: D3 Ki (nM)
Summary of the method: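 Membranes from CHO cells stably expressing human D3 receptor, homogenised in 10% DMSO and stored at -80°C. Binding uses [N-methyl-3H]spiroperidol in Tris buffer, pH 7.7.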

T1 sequence (P35462 whole entry): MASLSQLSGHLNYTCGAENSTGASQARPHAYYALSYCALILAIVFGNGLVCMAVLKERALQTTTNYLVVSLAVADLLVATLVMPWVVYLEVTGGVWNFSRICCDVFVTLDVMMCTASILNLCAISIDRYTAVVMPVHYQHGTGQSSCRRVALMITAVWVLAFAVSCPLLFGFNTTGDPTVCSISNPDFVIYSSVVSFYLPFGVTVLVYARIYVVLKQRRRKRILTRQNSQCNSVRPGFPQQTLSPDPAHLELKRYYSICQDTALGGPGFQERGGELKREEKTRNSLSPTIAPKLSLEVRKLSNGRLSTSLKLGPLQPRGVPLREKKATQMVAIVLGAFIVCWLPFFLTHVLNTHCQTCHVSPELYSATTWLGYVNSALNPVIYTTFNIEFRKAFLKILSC

Row | SMILES | Ki [nM]
1 | CN1C2CCC1CC(NC(=O)C1CC1CN1CCC(c3nn(C)c4c(C(F)(F)F)cccc34)CC1)C2 (stereo not shown) [A002328941] | 23.9
2 | O=C(NC1CCN(Cc2ccc(C(F)(F)F)cc2)CC1)C1CC1CN1CCC(c2noc3ccsc23)CC1 (stereo not shown) [compound 832349] | 0.843
3 | COc1ccccc1CN1CCC(NC(=O)C2CC2CN2CCC(c3noc4ccsc34)CC2)CC1 (stereo not shown) [compound 831991] | 0.722
4 | O=C(NCCCn1ccnc1)[C@@H]1C[C@H]1CN1CCC(c2nn(-c3ccc(C(F)(F)F)cc3)c3ccccc23)CC1 [compound 831311] | 38.7

Same assay, conditions: Table 2; unit inferred; read-out: d3Ki

Row | SMILES | Ki [nM]
5 | CCN(C(=O)CCCN1CCCN(c2csc3cc(F)ccc23)CC1)C1CCCCC1 [compound 826829] | 15
6 | O=C(CCCN1CCN(c2csc3cc(F)ccc23)CC1Cc1ccccc1)NC1CCCCC1 (stereo not shown) [compound 827102] | 218
7 | C[C@H]1CC[C@H](NC(=O)[C@H]2C[C@@H]2CN2CCN(c3csc4cc(C(F)(F)F)ccc34)CC2)CC1 [(+)-816589] | 1070
8 | CCC1CCC(NC(=O)C2CC2CN2CCN(c3cccc(Cl)c3Cl)CC2)CC1 (stereo not shown) [compound 817041] | 0.776
9 | C[C@@]1(C(=O)NCc2nc3ccccc3[nH]2)C[C@H]1CN1CCN(c2csc3cc(C(F)(F)F)ccc23)CC1 [compound 825887] | 90.4
10 | C[C@H]1CC[C@H](NC(=O)[C@@H]2C[C@H]2CN2CCN(c3csc4cc(C(F)(F)F)ccc34)CC2)CC1 [(-)-817569] | 2.62
11 | CC1C(CN2CCN(c3csc4cc(C(F)(F)F)ccc34)CC2)C1C(=O)NC1CCCCC1 (stereo not shown) [compound 825860] | 130
12 | O=C(NCc1ccc(C(F)(F)F)cc1)[C@@H]1C[C@H]1CN1CCN(c2csc3cc(C(F)(F)F)ccc23)CC1 [compound 826071] | 165
13 | O=C(CCCN1CCN(c2csc3cc(F)ccc23)CC1)Nc1cccc2ccccc12 [compound 822145] | 176
14 | O=C(NCc1cccnc1)[C@@H]1C[C@H]1CN1CCN(c2csc3cc(C(F)(F)F)ccc23)CC1 [compound 822203] | 30
15 | CC[C@H]1CC[C@H](NC(=O)[C@@H]2C[C@H]2CN2CCN(c3ccc(Cl)c(Cl)c3)CC2)CC1 [817090A] | 5.04
16 | C[C@@]1(C(=O)NCc2ccc(C(F)(F)F)cc2)C[C@H]1CN1CCN(c2csc3cc(C(F)(F)F)ccc23)CC1 [compound 825899] | 42.9
17 | O=C(NCc1ccc2c(c1)OCO2)[C@@H]1C[C@H]1CN1CCN(c2csc3cc(C(F)(F)F)ccc23)CC1 [compound 822204] | 12.6
18 | C[C@H]1CC[C@H](NC(=O)[C@@H]2C[C@H]2CN2CCN(c3csc4cc(C(F)(F)F)ccc34)CC2)CC1 [compound 815916] | 5
19 | O=C(NCc1ccco1)[C@@H]1C[C@H]1CN1CCN(c2csc3cc(C(F)(F)F)ccc23)CC1 [compound 826069] | 27.2
20 | C[C@H]1CC[C@H](NC(=O)[C@@H]2C[C@H]2CN2CCN(c3ncccc3Cl)CC2)CC1 [compound 817565] | 1.73
21 | CC[C@H]1CC[C@H](NC(=O)[C@@H]2C[C@H]2CN2CCCN(c3ncccc3Cl)CC2)CC1 [compound 827733] | 1.19
22 | C[C@H]1CC[C@H](NC(=O)CCCN2CCN(c3csc4cc(C(F)(F)F)ccc34)CC2Cc2ccccc2)CC1 (stereo partly shown) [compound 827055] | 792

Results, then the compound that gave them:

Row | Ki [nM] | SMILES
23 | 80.6 | CC1CCC(NC(=O)C2CC2CN2CCCN(c3cnccn3)CC2)CC1 (stereo not shown) [compound 817567]
24 | 19.5 | Cc1ccc(N2CCCN(C[C@@H]3C[C@H]3C(=O)N[C@H]3CC[C@H](C)CC3)CC2)nc1 [compound 827731]
25 | 17 | O=C(NC1CCCC1)[C@@H]1C[C@H]1CN1CCN(c2csc3cc(C(F)(F)F)ccc23)CC1 [compound 826658]
26 | 175 | O=C(NCc1ccccn1)[C@@H]1C[C@H]1CN1CCN(c2csc3cc(C(F)(F)F)ccc23)CC1 [compound 826065]
27 | 32.3 | O=C(NC1CCC1)[C@@H]1C[C@H]1CN1CCN(c2csc3cc(C(F)(F)F)ccc23)CC1 [compound 826073]
28 | 334 | CCOC(=O)C1CCC(NC(=O)CCCN2CCN(c3csc4cc(F)ccc34)CC2Cc2ccccc2)CC1 (stereo not shown) [compound 827086]
29 | 0.636 | CCC1CCC(NC(=O)C2CC2CN2CCN(c3cc(Cl)cc(Cl)c3)CC2)CC1 (stereo not shown) [compound 817097]

Same assay, conditions: Table 2 part the 10th table; read-out: d3Ki

Row | SMILES | Ki [nM]
30 | O=C([C@@H]1C[C@H]1CN1CCN(c2csc3cc(C(F)(F)F)ccc23)CC1)N1CCC[C@H]1CNc1ccccc1 [compound 826916] | 157
31 | CN(C)C1CCN(C(=O)CCCN2CCN(c3csc4cc(F)ccc34)CC2)C1 (stereo not shown) [compound 826863] | 26.6
32 | O=C([C@@H]1C[C@H]1CN1CCCN(c2csc3cc(C(F)(F)F)ccc23)CC1)N1CCC(Cc2ccccc2)CC1 [compound 826688] | 217
33 | O=C([C@@H]1C[C@H]1CN1CCN(c2csc3cc(C(F)(F)F)ccc23)CC1)N1CCCCC1 [compound 826081] | 18.6
34 | O=C([C@@H]1C[C@H]1CN1CCN(c2csc3cc(F)ccc23)CC1)N1CCC(Cc2ccccc2)CC1 [compound 826673] | 7.9

The next lines start with the values.

Row | Ki [nM] | SMILES
35 | 329 | Cc1cccc(C)c1NC[C@@H]1CCCN1C(=O)[C@@H]1C[C@H]1CN1CCN(c2csc3cc(C(F)(F)F)ccc23)CC1 [compound 826919]
36 | 141 | CN(C)C1CCN(C(=O)CCCN2CCN(c3csc4cc(F)ccc34)CC2Cc2ccccc2)C1 (stereo not shown) [compound 827104]
37 | 9.37 | O=C(CCCN1CCCN(c2csc3cc(F)ccc23)CC1)N1CCCC1 [compound 826839]
38 | 84 | O=C(CCCN1CCN(c2csc3cc(F)ccc23)CC1Cc1ccccc1)N1CCC(O)CC1 (stereo not shown) [compound 827093]
39 | 8.01 | CC1CCN(C(=O)CCCN2CCCN(c3csc4cc(F)ccc34)CC2)CC1 [compound 826834]
40 | 45.5 | CCOC(=O)C1CCN(C(=O)[C@@H]2C[C@H]2CN2CCN(c3csc4cc(C(F)(F)F)ccc34)CC2)CC1 [compound 826899]
41 | 197 | CC1(C)CCCN(C(=O)CCCN2CCN(c3csc4cc(C(F)(F)F)ccc34)CC2Cc2ccccc2)C1 (stereo not shown) [compound 827068]
42 | 18.8 | CC1CCCN(C(=O)[C@@H]2C[C@H]2CN2CCN(c3csc4cc(C(F)(F)F)ccc34)CC2)C1 (stereo partly shown) [compound 826907]
43 | 118 | C[C@@]1(C(=O)N2CCCCC2)C[C@H]1CN1CCN(c2csc3cc(C(F)(F)F)ccc23)CC1 [compound 825891]

Same assay, conditions: read-out: D3 Ki

Row | Ki [nM] | SMILES
44 | 4.17 | O=C(NCCCc1ccncc1)[C@@H]1C[C@H]1CN1CCC(c2noc3ccsc23)CC1 [compound 831197]
45 | 22 | Cc1nc(N)sc1CCNC(=O)C1CC1CN1CCC(c2noc3ccsc23)CC1 (stereo not shown) [compound 832045]
46 | 79.1 | COCCN1CCN(C(=O)[C@@H]2C[C@H]2CN2CCN(c3nn(C)c4ccc(OC)cc34)CC2)CC1 [832748FH]
47 | 26.5 | COc1ccc2c(c1)c(N1CCN(C[C@@H]3C[C@H]3C(=O)NCCCN3CCN(C)CC3)CC1)nn2C [compound 833121]
48 | 2.67 | O=C(NC1CCNCC1)[C@@H]1C[C@H]1CN1CCN(c2csc3cc(C(F)(F)F)ccc23)CC1 [compound 832502]
49 | 28.3 | O=C(NCCCc1ccccc1)[C@@H]1C[C@H]1CN1CCN(c2noc3ccsc23)CC1 [compound 831494]
50 | 350 | CN(CCc1ccccn1)C(=O)C1CC1CN1CCC(c2noc3ccsc23)CC1 (stereo not shown) [compound 829593]

Row | SMILES | Ki [nM]
51 | Cn1nc(C2CCN(C[C@@H]3C[C@H]3C(=O)NCCCn3ccnc3)CC2)c2cccc(C(F)(F)F)c21 [A002329093] | 411
52 | Cn1nc(C2CCN(C[C@@H]3C[C@H]3C(=O)NCCCN3CCCCC3)CC2)c2cccc(C(F)(F)F)c21 [A002329092] | 321
53 | Cn1nc(C2CCN(C[C@@H]3C[C@H]3C(=O)N[C@H]3CC[C@H](C)CC3)CC2)c2cccc(C(F)(F)F)c21 [compound 833305] | 8.81

Same assay, conditions: read-out: d3Ki

Row | SMILES | Ki [nM]
54 | Cc1cccc(N2CCN(C[C@@H]3C[C@H]3C(=O)N[C@H]3CC[C@H](C)CC3)CC2)c1 [compound 827180] | 2.47
55 | CC[C@H]1CC[C@H](NC(=O)[C@@H]2C[C@H]2CN2CCN(c3ccccc3)CC2)CC1 [compound 827230] | 2.09
56 | Cc1ccc(C)c(N2CCN(C[C@@H]3C[C@H]3C(=O)N[C@H]3CC[C@H](C)CC3)CC2)c1 [compound 827186] | 8.21
57 | CC[C@H]1CC[C@H](NC(=O)[C@@H]2C[C@H]2CN2CCN(c3cccc(Cl)c3)CC2)CC1 [compound 827212] | 1.2
58 | O=C(NCc1nc2ccccc2[nH]1)[C@@H]1CCC[C@H]1N1CCN(c2csc3cc(F)ccc23)CC1 [825826G] | 32.5
59 | O=C(NC1CCCC1)[C@@H]1C[C@H]1CN1CCCN(c2csc3cc(C(F)(F)F)ccc23)CC1 [compound 826684] | 7.9
60 | C[C@H]1CC[C@H](NC(=O)[C@@H]2C[C@H]2CN2CCN(c3ccc(C(F)(F)F)cn3)CC2)CC1 [compound 827182] | 73
61 | CC1CC(NC(=O)[C@@H]2C[C@H]2CN2CCN(c3csc4cc(C(F)(F)F)ccc34)CC2)CC(C)(C)C1 (stereo partly shown) [compound 826893] | 20.4
62 | O=C(NCc1ccccc1)[C@@H]1CCCC[C@@H]1CN1CCN(c2csc3cc(C(F)(F)F)ccc23)CC1 [compound 826106] | 230

Now from value to compound:

Row | Ki [nM] | SMILES
63 | 2.16 | CC[C@H]1CC[C@H](NC(=O)[C@@H]2C[C@H]2CN2CCN(c3ccccc3Cl)CC2)CC1 [compound 827216]
64 | 4.49 | CC[C@H]1CC[C@H](NC(=O)[C@@H]2C[C@H]2CN2CCN(c3ccc(F)cc3)CC2)CC1 [compound 827235]
65 | 8.7 | Cc1ccc(N2CCN(C[C@@H]3C[C@H]3C(=O)N[C@H]3CC[C@H](C)CC3)CC2)cc1 [compound 827174]
66 | 1.22 | CC[C@H]1CC[C@H](NC(=O)[C@@H]2C[C@H]2CN2CCN(c3ccccc3OC)CC2)CC1 [compound 827218]
67 | 40.1 | O=C(NCC1CC1)[C@@H]1CCC[C@H]1N1CCN(c2csc3cc(F)ccc23)CC1 [825829G]
68 | 152 | O=C(NCc1ccccn1)[C@@H]1CCC[C@H]1N1CCN(c2csc3cc(F)ccc23)CC1 [compound 825825]
69 | 7.47 | O=C(NC1CCC(CO)CC1)C1CC1CN1CCN(c2csc3cc(C(F)(F)F)ccc23)CC1 (stereo not shown) [compound 816593]
70 | 2.48 | CC[C@H]1CC[C@H](NC(=O)[C@@H]2C[C@H]2CN2CCN(c3ccc(Cl)c(C(F)(F)F)c3)CC2)CC1 [compound 827238]

Source: patent EP1935887A1, “Heterocyclic substituted carbonyl derivatives and their use as dopamine D3 receptor ligands” (Aventis Pharmaceuticals Inc., priority 2001, dated 2002)
